Where “and” joins values, the source holds several entries; their conditions need not be identical. Equal entries are not always repeated. Records with an inconclusive call do not appear.
System: BDF1 mice, M5076 sarcoma s.c., survival/tumor T/C
Test: NCI In Vivo Anticancer Drug Screen. Data for tumor model Sarcoma M5076 (subcutaneous) in B6D2F1 (BDF1) mice
Experimental: The antitumor activity of compounds was measured in mice bearing transplantable tumors. Survival or tumor size were measured and the results are expressed as the measurement made in the treated group (T) divided by the measurement made in the vehicle treated control group (C). The tumor model used in this assay is Sarcoma M5076 (subcutaneous) in B6D2F1 (BDF1) mice

[1] = endpoint: median survival time, dose: 50.0 mg/kg/injection, schedule: Q04DX003 (ip), vehicle: saline with Tween-80, higher = longer survival
[2] = endpoint: median survival time, dose: 100.0 mg/kg/injection, schedule: Q04DX003 (ip), vehicle: saline with Tween-80, higher = longer survival

O=C(O)CCCc1ccc(N(CCCl)CCCl)cc1
T/C (endpoint: median survival time, dose: 1.5 mg/kg/injection, schedule: Q02DX030 (ip), vehicle: saline with Tween-80, higher = longer survival): 158 % of control | T/C (endpoint: median survival time, dose: 3.0 mg/kg/injection, schedule: Q02DX030 (ip), vehicle: saline with Tween-80, higher = longer survival): 194 % of control | T/C (endpoint: median survival time, dose: 3.0 mg/kg/injection, schedule: Q04DX006 (ip), vehicle: saline with Tween-80, higher = longer survival): 100 % of control | T/C (endpoint: median survival time, dose: 6.0 mg/kg/injection, schedule: Q04DX006 (ip), vehicle: saline with Tween-80, higher = longer survival): 117 % of control | T/C (endpoint: median survival time, dose: 12.0 mg/kg/injection, schedule: Q04DX006 (ip), vehicle: saline with Tween-80, higher = longer survival): 124 % of control

Cc1nc(N)nc(N)c1-c1ccc(Cl)c(Cl)c1
T/C (endpoint: median survival time, dose: 1.5 mg/kg/injection, schedule: Q01DX009 (ip), vehicle: normal media, higher = longer survival): 105 % of control

CC(=O)Nc1ccc(S(=O)(=O)NNC(=O)C(=O)Nc2cccc(Cl)c2)cc1
T/C (endpoint: median survival time, dose: 50.0 mg/kg/injection, schedule: Q01DX009 (ip), vehicle: saline with Tween-80, higher = longer survival): 105 % of control | T/C (endpoint: median survival time, dose: 100.0 mg/kg/injection, schedule: Q01DX009 (ip), vehicle: saline with Tween-80, higher = longer survival): 98 % of control | T/C (endpoint: median survival time, dose: 200.0 mg/kg/injection, schedule: Q01DX009 (ip), vehicle: saline with Tween-80, higher = longer survival): 86 % of control | T/C (endpoint: median tumor weight (est.), dose: 50.0 mg/kg/injection, schedule: Q01DX009 (ip), vehicle: saline with Tween-80, higher = larger tumour): 113 % of control | T/C (endpoint: median tumor weight (est.), dose: 100.0 mg/kg/injection, schedule: Q01DX009 (ip), vehicle: saline with Tween-80, higher = larger tumour): 108 % of control | T/C (endpoint: median tumor weight (est.), dose: 200.0 mg/kg/injection, schedule: Q01DX009 (ip), vehicle: saline with Tween-80, higher = larger tumour): 92 % of control

CN(C)CCCNc1c2ccccc2nc2cccc([N+](=O)[O-])c12
T/C (endpoint: mean tumor weight, dose: 2.0 micrograms/kg/injection, schedule: Q02DX011 (ip), vehicle: saline, higher = larger tumour): 106 % of control | T/C (endpoint: mean tumor weight, dose: 4.0 micrograms/kg/injection, schedule: Q02DX011 (ip), vehicle: saline, higher = larger tumour): 70 % of control | T/C (endpoint: mean tumor weight, dose: 8.0 micrograms/kg/injection, schedule: Q02DX011 (ip), vehicle: saline, higher = larger tumour): 97 % of control | T/C (endpoint: mean tumor weight, dose: 16.0 micrograms/kg/injection, schedule: Q02DX011 (ip), vehicle: saline, higher = larger tumour): 92 % of control | T/C (endpoint: mean tumor weight, dose: 32.0 micrograms/kg/injection, schedule: Q02DX011 (ip), vehicle: saline, higher = larger tumour): 88 % of control | T/C (endpoint: mean tumor weight, dose: 64.0 micrograms/kg/injection, schedule: Q02DX011 (ip), vehicle: saline, higher = larger tumour): 65 % of control | T/C (endpoint: median tumor weight (est.), dose: 2.0 micrograms/kg/injection, schedule: Q02DX011 (ip), vehicle: saline, higher = larger tumour): 112 % of control | T/C (endpoint: median tumor weight (est.), dose: 4.0 micrograms/kg/injection, schedule: Q02DX011 (ip), vehicle: saline, higher = larger tumour): 90 % of control | T/C (endpoint: median tumor weight (est.), dose: 8.0 micrograms/kg/injection, schedule: Q02DX011 (ip), vehicle: saline, higher = larger tumour): 95 % of control | T/C (endpoint: median tumor weight (est.), dose: 32.0 micrograms/kg/injection, schedule: Q02DX011 (ip), vehicle: saline, higher = larger tumour): 100 % of control | T/C (endpoint: median tumor weight (est.), dose: 64.0 micrograms/kg/injection, schedule: Q02DX011 (ip), vehicle: saline, higher = larger tumour): 62 % of control

NCCCNCCSP(=O)(O)O
T/C (endpoint: median survival time, dose: 25.0 mg/kg/injection, schedule: Q02DX011 (ip), vehicle: saline, higher = longer survival): 116 % of control | T/C (endpoint: median survival time, dose: 50.0 mg/kg/injection, schedule: Q02DX011 (ip), vehicle: saline, higher = longer survival): 106 % of control | T/C (endpoint: median survival time, dose: 100.0 mg/kg/injection, schedule: Q02DX011 (ip), vehicle: saline, higher = longer survival): 96 % of control

COc1cc(C(C)(C)C)cc(OC)c1C(O)(c1c(OC)cc(C(C)(C)C)cc1OC)c1c(OC)cc(C(C)(C)C)cc1OC
T/C [1]: 95 % of control | T/C [2]: 102 % of control

N[C@@H](Cc1ccc(N(CCCl)CCCl)cc1)C(=O)O
T/C (endpoint: median survival time, dose: 0.75 mg/kg/injection, schedule: Q04DX006 (ip), vehicle: saline, higher = longer survival): 105 % of control | T/C (endpoint: median survival time, dose: 1.5 mg/kg/injection, schedule: Q04DX006 (ip), vehicle: saline, higher = longer survival): 111 % of control | T/C (endpoint: median survival time, dose: 3.0 mg/kg/injection, schedule: Q02DX033 (ip), vehicle: saline, higher = longer survival): 230 % of control | T/C (endpoint: median survival time, dose: 3.0 mg/kg/injection, schedule: Q04DX006 (ip), vehicle: saline, higher = longer survival): 121 % of control | T/C (endpoint: median survival time, dose: 3.24 mg/kg/injection, schedule: Q01DX001 (ip), vehicle: saline, higher = longer survival): 154 % of control and 155 % of control

O=C1C=CN(C2OC(CO)C(O)C2O)C(=O)C1 (centres undefined)
T/C (endpoint: mean tumor weight, dose: 150.0 mg/kg/injection, schedule: Q02DX011 (ip), vehicle: saline, higher = larger tumour): 42 % of control and 46 % of control | T/C (endpoint: mean tumor weight, dose: 300.0 mg/kg/injection, schedule: Q02DX011 (ip), vehicle: saline, higher = larger tumour): 44 % of control and 51 % of control | T/C (endpoint: median tumor weight (est.), dose: 75.0 mg/kg/injection, schedule: Q02DX011 (ip), vehicle: saline, higher = larger tumour): 78 % of control and 82 % of control | T/C (endpoint: median tumor weight (est.), dose: 150.0 mg/kg/injection, schedule: Q02DX011 (ip), vehicle: saline, higher = larger tumour): 43 % of control and 48 % of control | T/C (endpoint: median tumor weight (est.), dose: 300.0 mg/kg/injection, schedule: Q02DX011 (ip), vehicle: saline, higher = larger tumour): 38 % of control and 46 % of control

C=C1C(O)C2OC3(CCC(/C=C/C(C)C4CC5(C)SC5C5(OC(CC(C)(O)C(=O)O)CCC5O)O4)O3)CCC2OC1C(O)CC(C)C1OC2(CCCCO2)CCC1C (centres undefined)
T/C (endpoint: median survival time, dose: 1.25 micrograms/kg/injection, schedule: Q01DX009 (ip), vehicle: saline + alcohol, higher = longer survival): 101 % of control | T/C (endpoint: median survival time, dose: 2.5 micrograms/kg/injection, schedule: Q01DX009 (ip), vehicle: saline + alcohol, higher = longer survival): 96 % of control | T/C (endpoint: median survival time, dose: 5.0 micrograms/kg/injection, schedule: Q01DX009 (ip), vehicle: saline + alcohol, higher = longer survival): 108 % of control | T/C (endpoint: median survival time, dose: 10.0 micrograms/kg/injection, schedule: Q01DX009 (ip), vehicle: saline + alcohol, higher = longer survival): 96 % of control | T/C (endpoint: median tumor weight (est.), dose: 1.25 micrograms/kg/injection, schedule: Q01DX009 (ip), vehicle: saline + alcohol, higher = larger tumour): 107 % of control | T/C (endpoint: median tumor weight (est.), dose: 2.5 micrograms/kg/injection, schedule: Q01DX009 (ip), vehicle: saline + alcohol, higher = larger tumour): 77 % of control | T/C (endpoint: median tumor weight (est.), dose: 5.0 micrograms/kg/injection, schedule: Q01DX009 (ip), vehicle: saline + alcohol, higher = larger tumour): 92 % of control

O=C1c2ccccc2C(=O)c2c(NCCNCCO)ccc(O)c21
T/C (endpoint: median survival time, dose: 12.5 mg/kg/injection, schedule: Q04DX003 (ip), vehicle: saline with Tween-80, higher = longer survival): 90 % of control | T/C (endpoint: median survival time, dose: 25.0 mg/kg/injection, schedule: Q04DX003 (ip), vehicle: saline with Tween-80, higher = longer survival): 116 % of control | T/C [1]: 103 % of control | T/C [2]: 104 % of control and 107 % of control | T/C (endpoint: median survival time, dose: 150.0 mg/kg/injection, schedule: Q04DX003 (ip), vehicle: saline with Tween-80, higher = longer survival): 122 % of control

COc1cc(NS(C)(=O)=O)ccc1Nc1c2ccccc2nc2ccccc12
T/C (endpoint: mean tumor weight, dose: 1.88 mg/kg/injection, schedule: Q02DX011 (ip), vehicle: clinical formulation, higher = larger tumour): 68 % of control | T/C (endpoint: mean tumor weight, dose: 3.75 mg/kg/injection, schedule: Q02DX011 (ip), vehicle: clinical formulation, higher = larger tumour): 31 % of control | T/C (endpoint: median tumor weight (est.), dose: 1.88 mg/kg/injection, schedule: Q02DX011 (ip), vehicle: clinical formulation, higher = larger tumour): 79 % of control | T/C (endpoint: median tumor weight (est.), dose: 3.75 mg/kg/injection, schedule: Q02DX011 (ip), vehicle: clinical formulation, higher = larger tumour): 42 % of control

From PubChem BioAssay AID288 (DTP/NCI, 2004)
